Measurements from EP4000623A1, “5-(2-(1H-INDOL-3-YL))-ETHYL)- PIPERAZIN-2-ONE DERIVATIVES FOR USE IN THE TREATMENT OF VIRAL INFECTIONS BY VIRUSES OF THE FAMILY CORONAVIRIDAE” (Consejo Superior De Investigaciones Científicas, priority 2020, dated 2022).
Where two headings read alike, the source gives them in different places.

Key:
SARS-CoV-2 [1] = assay: Antiviral potency against SARS-CoV-2 in Vero-E6 cells (protection from virus-induced cytopathic effect / intracellular viral antigen accumulation); assay type: cell-based
[2] = Determination of cytotoxicity by MTT colorimetric assay; assay type: cell-based; settings: African green monkey, uninfected Vero-E6 cells, 50 to 0.78 µM
Method: Determination of cytotoxicity by MTT colorimetric assay: To evaluate the cytotoxicity profile of the selected compounds MTT assays were performed in Vero-E6 cells. Uninfected cells were incubated with a range of compound concentrations (from 50 to 0.78 µM) for forty-eight hours, time at which the MTT substrate [3-(4,5-dimethylthiazol-2-yl)-2,5-diphenyltetrazolium bromide] was added and the formation of formazan precipitates was evaluated two hours later, using a colorimetric readout. Vehicle-treated cells were used as reference (100%).

hCoV-229E-GFP = assay type: cell-based, Human coronavirus 229E
SARS-CoV-2 [3] = assay: Intracellular viral RNA quantitation by RT-qPCR; assay type: cell-based; settings: 15µM; for intracellular viral RNA levels (in words): as compared with the uninfected controls; for % RNA relative to DMSO: Vero-E6, MOI 0.001, 48 h, SARS-CoV-2 E gene normalised to 18S, DMSO set as 100%
[4] = Severe acute respiratory syndrome coronavirus 2, Vero C1008, SARS-CoV-2 strain NL/2020, Vero-E6 cells, mean, read-out: EC50 mean
[5] = Severe acute respiratory syndrome coronavirus 2, Vero C1008, SARS-CoV-2 strain NL/2020, Vero-E6 cells, mean, read-out: EC90 mean

## CC(C)(C)OC(=O)NCCCC[C@H]1C(=O)NCC([C@H](Cc2cn(C(=O)OC(C)(C)C)c3ccccc23)NC(=O)OC(C)(C)C)N1Cc1ccccc1 (stereo in doubt) [Example 4, (5R,3S)-4-benzyl-5-((S)-1-(tert-butoxycarbonyl)amino-2-(1-(tert-butoxycarbonyl)(indol-3-yl))-ethyl)-3-(4-(tert-butoxycarbonyl)amino-butyl)-2-oxopiperazine]
SARS-CoV-2 [1]; Severe acute respiratory syndrome coronavirus 2, Vero C1008, read-out: EC50 mean
  EC50: 1.6 µM
SARS-CoV-2 [1]; Severe acute respiratory syndrome coronavirus 2, Vero C1008, read-out: EC90 mean
  EC90: 14.7 µM
[2]
  CC50 at 48 h: > 50 µM
hCoV-229E-GFP
  % Reduction of hCoV-229E-GFP propagation: 97%

## CC(C)(C)OC(=O)NCCCC[C@@H]1N[C@H]([C@H](Cc2cn(C(=O)OC(C)(C)C)c3ccccc23)NC(=O)OC(C)(C)C)CNC1=O [Example 2, (5S,3S)-5-((S)-1-(tert-butoxycarbonyl)amino-2-(1-(tert-butoxycarbonyl)(indol-3-yl))-ethyl)-3-(4-(tert-butoxycarbonyl)amino-butyl)-2-oxopiperazine]
SARS-CoV-2 [1]; [4]
  EC50: 15.3 µM
SARS-CoV-2 [1]; [5]
  EC90: 46.7 µM
[2]
  CC50 at 48 h: > 50 µM

## CC(C)(C)OC(=O)NCCCC[C@H]1C(=O)NC[C@H]([C@H](Cc2cn(C(=O)OC(C)(C)C)c3ccccc23)NC(=O)OC(C)(C)C)N1Cc1ccccc1 [Example 3, (5R,3S)-4-benzyl-5-((S)-1-(tert-butoxycarbonyl)amino-2-(1-(tert-butoxycarbonyl)(indol-3-yl))-ethyl)-3-(4-(tert-butoxycarbonyl)amino-butyl)-2-oxopiperazine]
SARS-CoV-2 [1]; [4]
  EC50: 6.33 µM
SARS-CoV-2 [1]; [5]
  EC90: 14.3 µM
[2]
  CC50 at 48 h: > 50 µM
SARS-CoV-2 [3]
  intracellular viral RNA levels (in words): virtually undetectable levels
  % RNA relative to DMSO: 10^-2%
hCoV-229E-GFP
  % Reduction of hCoV-229E-GFP propagation: 94%

## CC(C)(C)OC(=O)CN1[C@@H]([C@H](Cc2cn(C(=O)OC(C)(C)C)c3ccccc23)NC(=O)OC(C)(C)C)CNC(=O)[C@@H]1CCCCNC(=O)OC(C)(C)C [Example 5, (5R,3S)-5-((S)-1-(tert-butoxycarbonyl)amino-2-(1-(tert-butoxycarbonyl)-(indol-3-yl))-ethyl)-4(tert-butoxycarbonyl)methyl-3-(4-(tert-butoxycarbonyl)aminobutyl)-2-oxopiperazine]
SARS-CoV-2 [1]; [4]
  EC50: 1.93 µM
SARS-CoV-2 [1]; [5]
  EC90: 7.33 µM
[2]
  CC50 at 48 h: > 50 µM
hCoV-229E-GFP
  % Reduction of hCoV-229E-GFP propagation: 94%

## CC(C)(C)OC(=O)CN1[C@@H](CCCCNC(=O)OC(C)(C)C)C(=O)NC[C@H]1[C@H](Cc1cn(C(=O)OC(C)(C)C)c2ccccc12)NC(=O)OC(C)(C)C [Example 6, (5S,3S)-5-((S)-1-(tert-butoxycarbonyl)amino-2-(1-(tert-butoxycarbonyl)-(indol-3-yl))-ethyl)-4(tert-butoxycarbonyl)methyl-3-(4-(tert-butoxycarbonyl)aminobutyl)-2-oxopiperazine]
SARS-CoV-2 [1]; [4]
  EC50: 3.17 µM
SARS-CoV-2 [1]; [5]
  EC90: 9.67 µM
[2]
  CC50 at 48 h: > 50 µM
SARS-CoV-2 [3]
  intracellular viral RNA levels (in words): virtually undetectable levels
  % RNA relative to DMSO: 10^-4%
hCoV-229E-GFP
  % Reduction of hCoV-229E-GFP propagation: 98%
